Data as given in patent US11731959B2, “Troxacitabine synthesis and crystal form thereof” (BEIJING HEBABIZ BIOTECHNOLOGY CO., LTD., priority 2015, dated 2023).

What was measured:
Type in all cases: physicochemical
[1] = Hygroscopicity study by DVS method at 25° C.; settings: for humidity at which the crystal form begins to absorb water / water absorbed at 90% RH: 25° C.; for crystal form after water absorption / DVS (XRPD): XRPD before and after DVS
Method: The hygroscopicity of crystal forms A, C and E is evaluated by DVS method at 25° C. Crystal form A begins to absorb water at 70% RH and absorbs 8.4% of water at 90% RH. […] Crystal form E begins to absorb water at 80% RH and absorbs 8.5% of water at 90% RH. […] Therefore, crystal form C is selected for further stability study.

[2] = Crystal form conversion on storage or heating (XRPD/DSC)
Source text: The innovator of this invention set up 103 pleiomorphic screening tests using 7 methods, and obtained 7 crystal forms therefrom, i.e., crystal forms A, B, C, E, F, J and K. Among those, crystal forms B, F and J are instable at common temperature while crystal form K is a crystal form of troxacitabine acetic acid solvate or acetate, crystal form C is a crystal form of troxacitabine monohydrate, and crystal forms A and E are the crystal forms of troxacitabine itself (anhydrous substance).
Transfer 201.3 mg of the final product obtained in the embodiment 1 to a 5-ml flasket, add 0.8 mL of water to dissolve and volatilize in a fume hood with the top open for 3 days. Transfer into a vacuum drying oven (<−100 KPa) and volatilize with the top open for 1 day. The resulted crystal form is called crystal form C and its superficial characteristics are obtained using x-ray powder diffraction (XRPD), thermogravimetric analysis (TGA) and differential scanning calorimetry (DSC).
Transfer 199.8 mg of the final product obtained in the embodiment 1 to a 5-ml flasket, add 4.0 mL of methanol:acetone=1:9 (v/v), and mix the suspension for 3 days. Centrifugate for 3 min at a rate of 10000 rpm, precipitate and vacuum dry for 1 h. The resulted crystal form is called crystal form E and its superficial characteristics are obtained using x-ray powder diffraction (XRPD) and differential scanning calorimetry (DSC). […] (the first endothermic peak at a starting temperature of 68.3° C. is the dehydration peak of crystal form C), the second endothermic peak disappears from DSC spectrum when heated to 160° C., that is, the second endothermic peak at a starting temperature of 146.0° C. is the crystal form conversion peak of crystal form A from crystal form E.)

[3] = Stability study of crystal form C (XRPD, TGA, DSC, HPLC)
Method: Crystal form C is evaluated for its physical-chemical stability when placed at 80° C. for 24 h (with the top closed) as well as at 40° C./75% RH and 25° C./60% RH for 1 week (with the top open). The chemical and physical stability of the samples are tested by XRPD, TGA, DSC and HPLC.

[4] = 1 week, 25° C./60% RH, top open
[5] = 1 week, 40° C./75% RH, top open

**Q.** Which results are given for `Nc1ccn(C2CO[C@H](CO)O2)c(=O)n1` (some centres unmarked) [crystal form A]?
**A.** humidity at which the crystal form begins to absorb water ([1]; DVS): 70 % RH; water absorbed at 90% RH ([1]; DVS): 8.4%; crystal form after water absorption / DVS (XRPD) [1]: begins to convert into crystal form C; crystal form change on storage ([2]; 1-month storage): partially convert into crystal form C

**Q.** Which results are given for `Nc1ccn(C2CO[C@H](CO)O2)c(=O)n1` (some centres unmarked) [crystal form C]?
**A.** hygroscopicity ([1]; DVS, 25° C./80% RH): 0.14%; crystal form after water absorption / DVS (XRPD) [1]: remain the same in crystal form; relative stability among crystal forms ([1]; room temperature and room humidity): most stable crystal form; crystal form change on heating ([2]; heated to 100° C., XRPD): conversion of crystal form C into crystal form A; TGA weight loss (heated to 100° C.) ([3]; 0 h, NA): 8.0; HPLC purity ([3]; 0 h, NA): 100.0 area %; TGA weight loss (heated to 100° C.) [3, 4]: 8.2; HPLC purity [3, 4]: 100.0 area %; TGA weight loss (heated to 100° C.) [3, 5]: 7.9; HPLC purity [3, 5]: 100.0 area %; physical stability ([3]; 40° C./75% RH and 25° C./60% RH, 1 week): physically stable; chemical stability ([3]; 80° C. 24 h, 40° C./75% RH and 25° C./60% RH 1 week, chemical impurity analysis): chemically stable; TGA weight loss (heated to 100° C.) ([3]; 24 h, 80° C., top closed): 0.4; HPLC purity ([3]; 24 h, 80° C., top closed): 100.0 area %

**Q.** Which “humidity at which the crystal form begins to absorb water” value ([1]; DVS) does the source give for `Nc1ccn(C2CO[C@H](CO)O2)c(=O)n1` (some centres unmarked) [crystal form E] here?
**A.** 80 % RH

**Q.** What about the “water absorbed at 90% RH” value ([1]; DVS) of the same compound?
**A.** 8.5%

**Q.** What about the “crystal form after water absorption / DVS (XRPD)” value [1] of the same compound?
**A.** begins to convert into crystal form C

**Q.** And the “crystal form change on heating” value ([2]; heated to 160° C., XRPD)?
**A.** conversion of crystal form E into crystal form A

**Q.** And the “crystal form change on storage” value ([2]; stored for 3 months in air, XRPD)?
**A.** has a tendency to convert into crystal form C
